Results as given in patent US20260137698A1, “CYCLIN-DEPENDENT KINASE 7 INHIBITORS” (JOINT STOCK COMPANY «BIOCAD», priority 2022, published 2026).

Key:
[1] = biological target: CDK9/Cyclin K (Homo sapiens, UniProt P50750); test: Inhibition of CDK9/Cyclin K kinase activity (ADP-Glo); assay type: biochemical; conditions: mean value from several measurements; read-out: IC50 CDK9/Cyclin K
Method: (§1) Measurements were carried out in a 5 μl reaction volume using a 384-well plate (Corning Inc., order no. 4513). The analyzed substances were titrated from 50 μM in increments of 4 at 11 concentration points in a normal strength kinase buffer A (Thermo Fisher Scientific Inc, cat. no. PV3189) supplemented with DTT (Sigma, orde. no. 646563-10X.5ML) and prepared with water (Panreac, order no. 701074). Kinase was diluted in an analogous buffer, mixed with test compounds in plate wells and preincubated for 10 minutes at 25° C. Following incubation, a mixture of reaction substrate (CDKtide (SignalChem, order no. C06-58) or Histone H1 (SignalChem, order no. H10-54N) or PDKtide (SignalChem, order no. P10-58) and ATP (SignalChem, order no. V915B) prepared on a normal strength kinase buffer A was added. 1% solution of dimethyl sulfoxide (DMSO) (Sigma-Aldrich, order no. D2438) in the reaction volume was used as a negative control. The final concentrations of all reaction components are shown in Table 5. The plate was centrifuged at 400 rcf (Eppendorf, 5804 R) for 1 minute and incubated for 40-60 minutes at 25° C. The amount of ATP consumed in the kinase reaction was then measured using the ADP-Glo™ detection system. Luminescence signal was measured using Spark 20M tablet multifunction reader (Tecan Group Ltd, Switzerland). IC50 value was calculated using Magellan 7.2 (Tecan Group Ltd, Switzerland) by approximating experimental points by four-parameter model with the optimization by Levenberg-Marquardt:
(§2) [formula] • where A is the upper asymptote; D is the lower asymptote; C is IC50, half-maximal inhibitory concentration of kinase, nM; B is the curvature (slope).

[2] = biological target: CDK7/Cyclin H/MNAT1 (Homo sapiens, UniProt P50613); test: Inhibition of CDK7/Cyclin H/MNAT1 kinase activity (ADP-Glo); assay type: biochemical; conditions: mean value from several measurements; read-out: IC50 CDK7/Cyclin H/MNAT
Method: as §1, §2

[3] = Passive membrane permeability through PAMPA artificial membrane, pH 7.4; assay type: in vitro ADME; conditions: pH 7.4, 10 μmol, 20 hours at room temperature, mean of multiple measurements, read-out: PAMPA passive permeability Pe
Method: Passive membrane permeability of the compounds described in the present invention was determined using the PAMPA (parallel artificial membrane permeability assay) model at pH 7.4.
We used a 96-well plate (Corning® BioCoat® Pre-coated PAMPA Plate System, order no. 353015), composed of acceptor and donor parts with cell membrane-modeling PVDF filter pre-impregnated with a lecithin-phospholipid bilayer. The substance (at a concentration of 10 μmol) in a 0.01 M phosphate buffer with pH 7.4 was introduced into a donor well of the plate, and pure buffer was introduced into an acceptor well; afterwards, the both parts were combined and incubated for 20 hours at room temperature so that the compound was redistributed between the two wells and the membrane. Verapamil (USP, USA, order no. 1711202) and propranolol (MCE LLC, USA, cat. no. HY-B0573/CS-2680) were used as control compounds with high and medium permeability. Samples were analyzed by reversed-phase HPLC with UV detection (Agilent 1260 chromatograph with UV detector) by determining their peak areas in the donor and acceptor wells.
Permeability (Pe, cm/s) and retention factor (R, %) in the lipid bilayer were calculated using the formula:
[formula] [formula] • Co is donor-well concentration of the substance at the initial moment of time t (μM); • CA (t) is acceptor-well concentration of the substance at time t (μM); • Vd is donor-well volume (0.3 ml); • Va is acceptor-well volume (0.15 ml).
[formula] • A is filter area (0.3 cm^2); • t is incubation time (72000 s);

[4] = biological target: CDK2/Cyclin A (Homo sapiens, UniProt P24941); test: Inhibition of CDK2/Cyclin A kinase activity (ADP-Glo); assay type: biochemical; conditions: mean value from several measurements; read-out: IC50 CDK2/Cyclin A
Method: as §1, §2

[5] = tested on: MDA-MB-468 (triple negative breast cancer); test: Antiproliferative assay on MDA-MB-468 cells (AlamarBlue, 96 h); assay type: cell-based; conditions: Homo sapiens, mean value from several measurements
Method: The antiproliferative activity of CDK7 inhibitors according to the present invention was evaluated in a cell test using continuous cell cultures: MDA-MB-468 (triple negative breast cancer, ATCC® HTB-132™) and NCl-H82 (small cell lung cancer, ATCC® HTB-175™) using a viable AlamarBlue dye (Thermo Fisher Scientific Inc, order no. DAL1100). The cells were grown in DMEM (PanEco, order no. C330π) and RPMI-1640 (PanEco, order no. C330π), respectively. The basal growth medium was enriched with L-glutamine at a concentration of 2 mM (PanEco, order no. Φ032) and 10% fetal bovine serum (Gibco, order no. 16140-071). The night before measurement, MDA-MB-468 adherent cells were detached from plastic with a solution of trypsin-EDTA (PanEco, order no. Π039π), the solution was then inactivated by a DMEM complete medium, centrifuged at 1000 RPM (Eppendorf, 5804 R), a suspension of cells was prepared in a DMEM complete medium, introduced into 96-well culture plates (Corning Inc, order no. 3599) at 8×10^3 cells in 100 μl of medium per well. The next day, test compounds were dissolved in DMSO and diluted with a DMEM complete medium to a final concentration ranging from 50 μM to 10 pM. Diluted compounds in a volume of 50 μl were introduced into the plate wells with cells in triplicates (the final concentration of DMSO was no more than 1%) and incubated at 37° C. in an incubator with 5% CO2 for 96 hours. NCl-H82 suspension cell line was prepared on the day of the analysis. 10×10^3 cells in 100 μl of an RPMI-1640 complete medium were added to each well of a 96-well plate. The procedure for sample dilution is as described above. Cells with test compounds were incubated at 37° C. in an incubator with 5% CO2 for 120 hours. Following incubation, […] of AlamarBlue reagent (Thermo Fisher Scientific Inc., order no. DAL1100) was added to the wells, the contents of the plates were stirred in an orbital shaker (Biosan, Latvia), then further incubated for 5.5-6 hours at 37° C. in an incubator with 5% CO2. The number of viable cells was detected using the Infinite M200Pro microplate spectrophotometer (Tecan Group Ltd, Switzerland) by way of measuring a fluorescent signal at an excitation wavelength (λEx) of 540 nm and an emission wavelength (λEm) of 590 nm.
IC50 value was calculated using the Magellan software (Tecan Group Ltd, Switzerland) by approximating experimental points by four-parameter model with the optimization by Levenberg-Marquardt: […]

[6] = General cytotoxicity on primary differentiated HepaRG cells (72 h); assay type: cell-based; conditions: human, general toxicity, mean value from several measurements
Source text: General cytotoxicity of CDK7 inhibitors according to the present invention was investigated using primary differentiated HepaRG cells (Biopredic Int, order no. HPR101). A week before the measurement, the cells were thawed and maintained in Basal hepatic cell medium (Biopredic Int, order no. MIL700079) supplemented with HepaRG maintenance/metabolism medium supplement with antibiotics (Biopredic Int, order no. ADD620C). The medium in vials with cells was changed every 2-3 days. The night before the test, the cells were plated in wells of 96-well plates (Corning Inc., order no. 3599) at 25×10^3 cells in 100 μl of medium per well. The next day, test compounds were introduced into plate wells with cells, untitrated at a concentration ranging from 200 μM to 0.2 nM, and incubated for 72 hours. Cell viability was assessed as described above.

Chain of CDK9/Cyclin K (P50750 whole entry): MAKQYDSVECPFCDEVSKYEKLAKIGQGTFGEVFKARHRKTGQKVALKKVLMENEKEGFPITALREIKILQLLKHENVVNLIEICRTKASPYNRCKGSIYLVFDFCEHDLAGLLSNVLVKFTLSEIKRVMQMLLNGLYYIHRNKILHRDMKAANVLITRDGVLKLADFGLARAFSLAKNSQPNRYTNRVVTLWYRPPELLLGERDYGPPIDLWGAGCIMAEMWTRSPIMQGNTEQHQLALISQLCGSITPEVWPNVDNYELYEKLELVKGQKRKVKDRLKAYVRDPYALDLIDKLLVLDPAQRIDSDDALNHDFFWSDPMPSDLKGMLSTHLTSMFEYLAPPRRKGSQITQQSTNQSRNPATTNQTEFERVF
Chain of CDK9/Cyclin K (O75909 whole entry partner): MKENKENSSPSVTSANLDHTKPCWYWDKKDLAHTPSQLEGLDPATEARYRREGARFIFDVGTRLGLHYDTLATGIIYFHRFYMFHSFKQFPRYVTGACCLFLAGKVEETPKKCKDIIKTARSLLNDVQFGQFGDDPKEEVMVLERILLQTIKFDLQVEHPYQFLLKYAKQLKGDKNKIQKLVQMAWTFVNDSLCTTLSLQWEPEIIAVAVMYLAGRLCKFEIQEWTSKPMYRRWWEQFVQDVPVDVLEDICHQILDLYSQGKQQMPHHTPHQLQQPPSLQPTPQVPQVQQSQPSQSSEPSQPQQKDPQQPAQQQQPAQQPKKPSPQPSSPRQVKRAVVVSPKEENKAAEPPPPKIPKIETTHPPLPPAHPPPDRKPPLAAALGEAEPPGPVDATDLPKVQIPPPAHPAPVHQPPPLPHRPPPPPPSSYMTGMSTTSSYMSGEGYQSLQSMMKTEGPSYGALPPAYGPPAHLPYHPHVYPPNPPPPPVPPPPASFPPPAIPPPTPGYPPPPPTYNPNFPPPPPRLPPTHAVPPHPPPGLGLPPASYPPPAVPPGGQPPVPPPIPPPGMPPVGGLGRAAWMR
Chain of CDK7/Cyclin H/MNAT1 (P50613 whole entry): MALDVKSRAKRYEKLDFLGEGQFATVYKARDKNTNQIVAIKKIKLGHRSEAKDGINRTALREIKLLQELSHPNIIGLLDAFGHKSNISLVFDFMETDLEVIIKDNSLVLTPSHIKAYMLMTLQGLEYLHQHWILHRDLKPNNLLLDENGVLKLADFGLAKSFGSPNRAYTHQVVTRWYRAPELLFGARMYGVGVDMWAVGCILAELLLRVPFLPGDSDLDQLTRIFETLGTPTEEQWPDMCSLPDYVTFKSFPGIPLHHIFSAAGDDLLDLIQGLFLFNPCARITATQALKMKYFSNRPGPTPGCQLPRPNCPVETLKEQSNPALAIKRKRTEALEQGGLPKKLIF
Chain of CDK7/Cyclin H/MNAT1 (P51946 whole entry partner): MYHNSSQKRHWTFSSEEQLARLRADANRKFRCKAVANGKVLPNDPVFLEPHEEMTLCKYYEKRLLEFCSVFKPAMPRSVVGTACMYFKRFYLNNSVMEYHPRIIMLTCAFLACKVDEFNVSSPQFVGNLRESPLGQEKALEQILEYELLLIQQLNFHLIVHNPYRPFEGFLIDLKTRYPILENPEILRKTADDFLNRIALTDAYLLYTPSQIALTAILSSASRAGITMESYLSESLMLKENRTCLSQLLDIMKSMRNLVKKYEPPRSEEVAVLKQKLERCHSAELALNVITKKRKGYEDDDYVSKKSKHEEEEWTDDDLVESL
Chain of CDK7/Cyclin H/MNAT1 (P51948 whole entry partner): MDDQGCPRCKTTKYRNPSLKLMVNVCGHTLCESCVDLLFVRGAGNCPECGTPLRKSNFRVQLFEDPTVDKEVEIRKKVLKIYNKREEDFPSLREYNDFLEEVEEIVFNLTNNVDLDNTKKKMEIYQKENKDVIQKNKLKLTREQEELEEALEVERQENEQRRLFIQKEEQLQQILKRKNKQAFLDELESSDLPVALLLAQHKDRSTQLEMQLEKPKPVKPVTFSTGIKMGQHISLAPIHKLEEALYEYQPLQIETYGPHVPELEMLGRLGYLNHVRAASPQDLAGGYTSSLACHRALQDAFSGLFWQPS

| SMILES | IC50 [1] | IC50 [2] | Papp at 20 h, 10 μmol [3] | IC50 [4] | IC50 [5] | CC50 at 72 h [6] |
| --- | --- | --- | --- | --- | --- | --- |
| FC(F)(F)c1cnc(N[C@H]2CCCNC2)nc1-c1c[nH]c(-c2ccccc2)c1 [CDK7_533, 4-(5-phenyl-1H-pyrrol-3-yl)-N-[(3S)-piperidin-3-yl]-5-(trifluoromethyl) pyrimidin-2-amine] | > 200 nM | 50 to 200 nM | < 1 ×10⁻⁶ cm/s | > 200 nM | 100 to 1000 nM | 500 to 2000 nM |
| FC(F)(F)c1cnc(N[C@H]2CCCNC2)nc1-n1nnc2ccccc21 [CDK7_811, 4-(1H-1,2,3-benzotriazol-1-yl)-N-[(3S)-piperidin-3-yl]-5-(trifluoromethyl)py-rimidin-2-amine] |  | 5 to 50 nM | 5 to 10 ×10⁻⁶ cm/s | > 200 nM | 100 to 1000 nM | 500 to 2000 nM |
| Cn1cc(NC(=O)c2cc(-c3nc(N[C@H]4CCCNC4)ncc3C(F)(F)F)c[nH]2)cn1 [CDK7_835, N-(1-methyl-1H-pyrazol-4-yl)-4-(2-{[(3S)-piperidin-3-yl]amino}-5-(trifluoromethyl)pyrimidin-4-yl)-1H-pyrrole-2-carboxamide] | 5 to 50 nM | 5 to 50 nM | < 1 ×10⁻⁶ cm/s | > 200 nM | 100 to 1000 nM | > 2000 nM |
| Cc1ccc(P(C)(C)=O)c(Nc2nc(N[C@H]3CCCNC3)ncc2C(F)(F)F)c1 [CDK7_903, N4-[2-(dimethylphos-phoryl)-5-methylphenyl]-N2-[(3S)-piperidin-3-yl]-5-(trifluoromethyl) pyrimidine-2,4-diamine] | > 200 nM | 5 to 50 nM | < 1 ×10⁻⁶ cm/s | > 200 nM |  |  |
| CN(C(=O)c1cc(-c2nc(N[C@H]3CCCNC3)ncc2C(F)(F)F)c[nH]1)c1nccs1 [CDK7_1003, N-methyl-4-(2-{[(3S)-piperidin-3-yl]amino}-5-(trifluoromethyl)pyrimidin-4-yl)-N-(1,3-thiazol-2-yl)-1H-pyrrole-2-carboxamide] | 50 to 200 nM | 5 to 50 nM |  | > 200 nM | 100 to 1000 nM | 500 to 2000 nM |
| CN1CCC(=O)c2c(-c3nc(N[C@H]4CCCNC4)ncc3C(F)(F)F)c[nH]c2C1=O [CDK7_1021, 7-methyl-3-(2-{[(3S)-piperidin-3-yl]amino}-5-(trifluoromethyl)py-rimidin-4-yl)-1H,4H,5H,6H,7H, 8H-pyrrolo[2,3-c]azepine-4,8-dione] | > 200 nM | 5 to 50 nM | < 1 ×10⁻⁶ cm/s | 5 to 50 nM |  | > 2000 nM |
| O=c1c2[nH]cc(-c3nc(N[C@H]4CCCNC4)ncc3C(F)(F)F)c2ccn1C1CCOCC1 [CDK7_1121] |  |  | < 1 ×10⁻⁶ cm/s |  |  | > 2000 nM |

Second part, led by results:

| IC50 [1] | IC50 [2] | Papp at 20 h, 10 μmol [3] | IC50 [4] | IC50 [5] | SMILES | CC50 at 72 h [6] |
| --- | --- | --- | --- | --- | --- | --- |
| 5 to 50 nM | < 5 nM | 1 to 5 ×10⁻⁶ cm/s | > 200 nM | 10 to 100 nM | CN(C)C(=O)c1cc(-c2nc(N[C@H]3CCCNC3)ncc2C(F)(F)F)c[nH]1 [CDK7_536, N,N-dimethyl-4-(2-{[(3S)-piperidin-3-yl]amino}-5-(trifluoromethyl)pyrimidin-4-yl)-1H-pyrrole-2-carboxamide] | 500 to 2000 nM |
| 5 to 50 nM | 5 to 50 nM | 1 to 5 ×10⁻⁶ cm/s | > 200 nM | 10 to 100 nM | Nc1ccccc1Oc1nc(N[C@H]2CCCNC2)ncc1C(F)(F)F [CDK7_548, 4-(2-aminophenoxy)-N-[(3S)-piperidin-3-yl]-5-(trifluoromethyl) pyrimidin-2-amine] | 500 to 2000 nM |
| 5 to 50 nM | < 5 nM | < 1 ×10⁻⁶ cm/s | > 200 nM | 100 to 1000 nM | CP(C)(=O)c1ccccc1Nc1nc(N[C@H]2CCCNC2)ncc1C(F)(F)F [CDK7_735, N4-[2-(dimethylphos-phoryl)phenyl]-N2-[(3S)-piperidin-3-yl]-5-(trifluoromethyl) pyrimidine-2,4-diamine] | > 2000 nM |
| 5 to 50 nM | < 5 nM | < 1 ×10⁻⁶ cm/s | > 200 nM | 100 to 1000 nM | Cc1ccc(Nc2nc(N[C@H]3CCCNC3)ncc2C(F)(F)F)c(P(C)(C)=O)c1 [CDK7_904, N4-[2-(dimethylphos-phoryl)-4-methylphenyl]-N2-[(3S)-piperidin-3-yl]-5-(trifluoromethyl) pyrimidine-2,4-diamine] | > 2000 nM |
| 5 to 50 nM | < 5 nM | < 1 ×10⁻⁶ cm/s | > 200 nM | < 10 nM | CN1Cc2c(-c3nc(N[C@H]4CCCNC4)ncc3C(F)(F)F)c[nH]c2C1=O [CDK7_944, 5-methyl-3-(2-{[(3S)-piperidin-3-yl]amino}-5-(trifluoromethyl)pyrimidin-4-yl)-1H,4H,5H,6H-pyrrolo[2,3-c]pyrrol-6-one] | < 100 nM |
| 5 to 50 nM | < 5 nM |  | > 200 nM | 100 to 1000 nM | CN(C(=O)c1cc(-c2nc(N[C@H]3CCCNC3)ncc2C(F)(F)F)c[nH]1)C1CC1 [CDK7_1001, N-cyclopropyl-N-methyl-4-(2-{[(3S)-piperidin-3-yl]amino}-5-(trifluoromethyl)pyrimidin-4-yl)-1H-pyrrole-2-carboxamide] | 500 to 2000 nM |
